Experimental data from US20180132470A1, “CONTROLLED STAND-ALONE MATRIX SYSTEM FOR THE CONTROLLED DISTRIBUTION OF ACTIVE SUBSTANCES” (AB7 Innovation S.A.S.U., priority 2015, published 2018).

Experiment: Release of IR3535 from cast polyurethane matrix, with and without heating activation
Assay type: physicochemical
Method: For the matrix, the same inputs are used as in Example 1. The PMEO is replaced by insecticide (IR3535®), which represents 30% by weight in relation to the total weight of the matrix.
The electronic card is programmed as in Example 2 except that the heating is systematically cut off when the intra-matrix temperature reaches 150° C.
FIG. 4 represents the reference release profile of IR3535® which is a non-volatile substance at ambient temperature. […] The sequential and successive activations were performed for 18 hours at a rate of 10 minutes heating followed by 20 minutes' pause. The intra-matrix temperature measured was 45° C.

residual quantity of IR3535 in relation to the quantity initially incorporated (after 590 sequences of heating): 9.5 % by weight
release of IR3535 initially incorporated (after 18 hours, sequential activations 10 min heating / 20 min pause, intra-matrix 45° C., cast polyurethane matrix): up to 3 % by weight
release of IR3535 by passive diffusion (same polyurethane matrix unheated at ambient temperature, even after 20 hours): releases absolutely nothing
average quantity of IR3535 released (solely at moments of activation, cast polyurethane matrix): 3.5 mg/h
Compound: CCCCN(CCC(=O)OCC)C(C)=O [IR3535®, ethyl-3-acetyl(butyl)amino-propanoate]
